{
  "source": "patent US20020137929A1",
  "about": "“1 - (3-heterocyclylphenyl) isothiourea, -isourea, -guanidine and -amidine herbicidal agents” (Intellectual Property Department, BASF Aktiengesellschaft, priority 1998, published 2002)",
  "key": {"[1]": {"test_system": "TRZAWR (Wheat, Winter, cv Riband)", "experiment": "Preemergence herbicidal evaluation", "format": "in vivo, Triticum aestivum", "settings": "rated 4-5 weeks after treatment", "procedure,_shortened": "(§1)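 Scores use a 0–9 visual scale covering stand, vigor, malformation, size and chlorosis relative to controls, rated four to five weeks after treatment. Before emergence, soil-planted seeds were sprayed with compound in aqueous acetone at roughly 0.0156–0.500 kg/ha and held in the greenhouse.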"}, "[2]": {"test_system": "CHEAL (Lambsquarters, Common)", "experiment": "Postemergence herbicidal evaluation", "format": "in vivo, Chenopodium album", "procedure,_shortened": "(§2)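 Young plants, roughly two weeks from seeding, receive the active ingredient as a sprayed dispersion (acetone/water 50/50, 0.5% TWEEN 20) at 40 psi. Doses span about 0.0156 to 0.500 kg/ha. A visual score from 0 to 9 compares treated with control plants four to five weeks on.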"}, "[3]": {"test_system": "GLXMAW (Soybean, Williams)", "experiment": "Preemergence herbicidal evaluation", "format": "in vivo, Glycine max, (L.) Merr. cv Williams", "settings": "rated 4-5 weeks after treatment", "procedure,_shortened": "as §1"}, "[4]": {"test_system": "CASOB (Sicklepod)", "experiment": "Preemergence herbicidal evaluation", "format": "in vivo, Cassia obtusifolia", "settings": "rated 4-5 weeks after treatment", "procedure,_shortened": "as §1"}, "[5]": {"test_system": "IPOHE (Morningglory, Ivyleaf)", "experiment": "Postemergence herbicidal evaluation", "format": "in vivo, Ipomoea hederacea", "procedure,_shortened": "as §2"}, "[6]": {"test_system": "ZEAMX (Corn, Field)", "experiment": "Preemergence herbicidal evaluation", "format": "in vivo, Zea mays", "settings": "rated 4-5 weeks after treatment", "procedure,_shortened": "as §1"}, "[7]": {"test_system": "ABUTH (Velvetleaf)", "experiment": "Preemergence herbicidal evaluation", "format": "in vivo, Abutilon theophrasti", "settings": "rated 4-5 weeks after treatment", "procedure,_shortened": "as §1"}, "[8]": {"test_system": "ECHCG (Barnyardgrass)", "experiment": "Preemergence herbicidal evaluation", "format": "in vivo, Echinochloa crus-galli", "settings": "rated 4-5 weeks after treatment", "procedure,_shortened": "as §1"}, "[9]": {"test_system": "ZEAMX (Corn, Field)", "experiment": "Postemergence herbicidal evaluation", "format": "in vivo, Zea mays", "procedure,_shortened": "as §2"}, "[10]": {"test_system": "CHEAL (Lambsquarters, Common)", "experiment": "Preemergence herbicidal evaluation", "format": "in vivo, Chenopodium album", "settings": "rated 4-5 weeks after treatment", "procedure,_shortened": "as §1"}, "[11]": {"test_system": "CYPIR (Rice Flatsedge)", "experiment": "Postemergence weed control under flooded paddy conditions", "format": "in vivo, Cyperus iria", "settings": "postemergence weeds, 3-4 weeks after treatment", "procedure,_shortened": "(§3)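 Injury ratings (0–9 scale covering stand, vigor, malformation, size, chlorosis and overall appearance versus control) were made three to four weeks after treatment. Test material, about 0.0313 to 0.500 kg/ha a.i. in 50/50 v/v aqueous/acetone, was added to flood water 1.5 to 3 cm deep over 3 to 5 cm weeds and 1.5 to 2.5 leaf rice.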"}, "[12]": {"test_system": "CYPSE (Flatsedge)", "experiment": "Postemergence weed control under flooded paddy conditions", "format": "in vivo, Cyperus serotinus", "settings": "postemergence weeds, 3-4 weeks after treatment", "procedure,_shortened": "as §3"}, "[13]": {"test_system": "ECHCG (Barnyardgrass)", "experiment": "Postemergence herbicidal evaluation", "format": "in vivo, Echinochloa crus-galli", "procedure,_shortened": "as §2"}, "[14]": {"test_system": "SETVI (Foxtail, Green)", "experiment": "Postemergence herbicidal evaluation", "format": "in vivo, Setaria viridis", "procedure,_shortened": "as §2"}, "[15]": {"test_system": "IPOHE (Morningglory, Ivyleaf)", "experiment": "Preemergence herbicidal evaluation", "format": "in vivo, Ipomoea hederacea", "settings": "rated 4-5 weeks after treatment", "procedure,_shortened": "as §1"}, "[16]": {"test_system": "ORYSAT (Rice, Tebonnet)", "experiment": "Postemergence herbicidal evaluation", "format": "in vivo, Oryza sativa, (L.) Tebonnet", "procedure,_shortened": "as §2"}, "[17]": {"test_system": "ABUTH (Velvetleaf)", "experiment": "Postemergence herbicidal evaluation", "format": "in vivo, Abutilon theophrasti", "procedure,_shortened": "as §2"}},
  "data": [
    {"molecule": "COC(=O)CCCN1C(=O)CSC1=Nc1cc(-n2c(=O)cc(C(F)(F)F)n(C)c2=O)c(F)cc1Cl", "note": "[Compound 29, Methyl 2-{{2-chloro-5-[3,6-dihydro-3-methyl-2,6-dioxo-4-(trifluoromethyl)-1(2H)-pyrimidinyl]-4-fluorophenyl}imino}-4-oxo-3-thiazolidinebutyrate]", "values": [
      {"measurement": "Preemergence herbicidal rating TRZAWR", "setting": "[1]; rate 0.0625 kg/ha", "value": 0.0},
      {"measurement": "Preemergence herbicidal rating TRZAWR", "setting": "[1]; rate 0.1250 kg/ha", "value": 0.0},
      {"measurement": "Preemergence herbicidal rating TRZAWR", "setting": "[1]; rate 0.2500 kg/ha", "value": 4.0},
      {"measurement": "Postemergence herbicidal rating CHEAL", "setting": "[2]; Rate 0.0158 kg/ha", "value": 1.0},
      {"measurement": "Postemergence herbicidal rating CHEAL", "setting": "[2]; Rate 0.0315 kg/ha", "value": 1.0},
      {"measurement": "Postemergence herbicidal rating CHEAL", "setting": "[2]; Rate 0.0630 kg/ha", "value": 5.0},
      {"measurement": "Preemergence herbicidal rating GLXMAW", "setting": "[3]; rate 0.0625 kg/ha", "value": 0.0},
      {"measurement": "Preemergence herbicidal rating GLXMAW", "setting": "[3]; rate 0.1250 kg/ha", "value": 0.0},
      {"measurement": "Preemergence herbicidal rating GLXMAW", "setting": "[3]; rate 0.2500 kg/ha", "value": 2.0},
      {"measurement": "Preemergence herbicidal rating CASOB", "setting": "[4]; rate 0.0625 kg/ha", "value": 0.0},
      {"measurement": "Preemergence herbicidal rating CASOB", "setting": "[4]; rate 0.1250 kg/ha", "value": 0.0},
      {"measurement": "Preemergence herbicidal rating CASOB", "setting": "[4]; rate 0.2500 kg/ha", "value": 0.0},
      {"measurement": "Postemergence herbicidal rating IPOHE", "setting": "[5]; Rate 0.0158 kg/ha", "value": 3.0},
      {"measurement": "Postemergence herbicidal rating IPOHE", "setting": "[5]; Rate 0.0315 kg/ha", "value": 9.0},
      {"measurement": "Postemergence herbicidal rating IPOHE", "setting": "[5]; Rate 0.0630 kg/ha", "value": 9.0},
      {"measurement": "Preemergence herbicidal rating ZEAMX", "setting": "[6]; rate 0.0625 kg/ha", "value": 0.0},
      {"measurement": "Preemergence herbicidal rating ZEAMX", "setting": "[6]; rate 0.1250 kg/ha", "value": 0.0},
      {"measurement": "Preemergence herbicidal rating ZEAMX", "setting": "[6]; rate 0.2500 kg/ha", "value": 6.0},
      {"measurement": "Preemergence herbicidal rating ABUTH", "setting": "[7]; rate 0.0625 kg/ha", "value": 9.0},
      {"measurement": "Preemergence herbicidal rating ABUTH", "setting": "[7]; rate 0.1250 kg/ha", "value": 9.0},
      {"measurement": "Preemergence herbicidal rating ABUTH", "setting": "[7]; rate 0.2500 kg/ha", "value": 9.0},
      {"measurement": "Preemergence herbicidal rating ECHCG", "setting": "[8]; rate 0.0625 kg/ha", "value": 0.0},
      {"measurement": "Preemergence herbicidal rating ECHCG", "setting": "[8]; rate 0.1250 kg/ha", "value": 0.0},
      {"measurement": "Preemergence herbicidal rating ECHCG", "setting": "[8]; rate 0.2500 kg/ha", "value": 0.0},
      {"measurement": "Postemergence herbicidal rating ZEAMX", "setting": "[9]; Rate 0.0158 kg/ha", "value": 5.5},
      {"measurement": "Postemergence herbicidal rating ZEAMX", "setting": "[9]; Rate 0.0315 kg/ha", "value": 5.5},
      {"measurement": "Postemergence herbicidal rating ZEAMX", "setting": "[9]; Rate 0.0630 kg/ha", "value": 7.5},
      {"measurement": "Preemergence herbicidal rating CHEAL", "setting": "[10]; rate 0.0625 kg/ha", "value": 0.0},
      {"measurement": "Preemergence herbicidal rating CHEAL", "setting": "[10]; rate 0.1250 kg/ha", "value": 0.0},
      {"measurement": "Preemergence herbicidal rating CHEAL", "setting": "[10]; rate 0.2500 kg/ha", "value": 0.0},
      {"measurement": "Herbicidal rating CYPIR", "setting": "[11]; rate 0.0313 kg/ha", "value": 0.0},
      {"measurement": "Herbicidal rating CYPIR", "setting": "[11]; rate 0.0625 kg/ha", "value": 0.0},
      {"measurement": "Herbicidal rating CYPIR", "setting": "[11]; rate 0.1250 kg/ha", "value": 0.0},
      {"measurement": "Herbicidal rating CYPIR", "setting": "[11]; rate 0.2500 kg/ha", "value": 0.0},
      {"measurement": "Herbicidal rating CYPSE", "setting": "[12]; rate 0.0313 kg/ha", "value": 0.0},
      {"measurement": "Herbicidal rating CYPSE", "setting": "[12]; rate 0.0625 kg/ha", "value": 0.0},
      {"measurement": "Herbicidal rating CYPSE", "setting": "[12]; rate 0.1250 kg/ha", "value": 0.0},
      {"measurement": "Herbicidal rating CYPSE", "setting": "[12]; rate 0.2500 kg/ha", "value": 0.0},
      {"measurement": "Postemergence herbicidal rating ECHCG", "setting": "[13]; Rate 0.0158 kg/ha", "value": 0.0},
      {"measurement": "Postemergence herbicidal rating ECHCG", "setting": "[13]; Rate 0.0315 kg/ha", "value": 1.0},
      {"measurement": "Postemergence herbicidal rating ECHCG", "setting": "[13]; Rate 0.0630 kg/ha", "value": 4.0},
      {"measurement": "Postemergence herbicidal rating SETVI", "setting": "[14]; Rate 0.0158 kg/ha", "value": 0.0},
      {"measurement": "Postemergence herbicidal rating SETVI", "setting": "[14]; Rate 0.0315 kg/ha", "value": 1.0},
      {"measurement": "Postemergence herbicidal rating SETVI", "setting": "[14]; Rate 0.0630 kg/ha", "value": 4.0},
      {"measurement": "Preemergence herbicidal rating IPOHE", "setting": "[15]; rate 0.0625 kg/ha", "value": 0.0},
      {"measurement": "Preemergence herbicidal rating IPOHE", "setting": "[15]; rate 0.1250 kg/ha", "value": 0.0},
      {"measurement": "Preemergence herbicidal rating IPOHE", "setting": "[15]; rate 0.2500 kg/ha", "value": 4.0},
      {"measurement": "Postemergence herbicidal rating ORYSAT", "setting": "[16]; Rate 0.0158 kg/ha", "value": 1.0},
      {"measurement": "Postemergence herbicidal rating ORYSAT", "setting": "[16]; Rate 0.0315 kg/ha", "value": 3.0},
      {"measurement": "Postemergence herbicidal rating ORYSAT", "setting": "[16]; Rate 0.0630 kg/ha", "value": 3.5},
      {"measurement": "Postemergence herbicidal rating ABUTH", "setting": "[17]; Rate 0.0158 kg/ha", "value": 9.0},
      {"measurement": "Postemergence herbicidal rating ABUTH", "setting": "[17]; Rate 0.0315 kg/ha", "value": 7.0},
      {"measurement": "Postemergence herbicidal rating ABUTH", "setting": "[17]; Rate 0.0630 kg/ha", "value": 9.0}
    ]}
  ]
}
